Experimental data as given in paper PMC9652372, “Glycolytic flux control by drugging phosphoglycolate phosphatase” (Nature Communications, 2022).
In brackets after ≈: the same amount, converted by molar mass. Several values for one entry are separate records, joined by “and”; a condition that tells them apart may be missing. Equal values may be shown once.

Tests used:
[1] = target: T1, murine PGP-WT (Mus musculus, UniProt Q8CHP8); assay: Isothermal titration calorimetry, PGP-WT; assay type: binding; settings: ITC; for Kd: murine PGP
T1 construct: His6 (N, cleaved yes); made in house; host or cells: Escherichia coli BL21 (DE3), pETM11, co-expressed with groES-groEL-tig
T1 sequence (Q8CHP8 1-321): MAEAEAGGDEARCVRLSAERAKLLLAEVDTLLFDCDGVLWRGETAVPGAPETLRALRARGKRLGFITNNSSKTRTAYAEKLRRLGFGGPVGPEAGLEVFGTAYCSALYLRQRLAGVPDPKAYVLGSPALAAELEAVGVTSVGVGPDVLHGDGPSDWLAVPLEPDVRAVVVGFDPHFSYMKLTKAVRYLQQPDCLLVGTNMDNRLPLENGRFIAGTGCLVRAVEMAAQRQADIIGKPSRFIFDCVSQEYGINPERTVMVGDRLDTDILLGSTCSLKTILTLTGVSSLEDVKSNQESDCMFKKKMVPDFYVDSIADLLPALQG
Protocol: Purified murine PGP-WT or PGP-P127E was dialyzed overnight against ITC buffer (30 mM HEPES, 30 mM NaCl, 5 mM MgCl2, 1 mM tris(2-carboxyethyl)phosphine/TCEP; pH 7.5). All calorimetric measurements were performed at 25 °C on an ITC200 microcalorimeter (GE Healthcare). Experiments were conducted with a fixed concentration of 2% DMSO. […] To reduce the effects of ligand leakage from the syringe during baseline equilibration, the heat release of a single 1.2 μL injection was recorded prior to the actual titration experiment, and discarded during data analysis with Nitpic 2.0.7[45]. To determine background heats of dilution, control experiments of ligand into buffer, buffer into protein and buffer into buffer titrations were performed.

[2] = target: T2, murine PDXP (Mus musculus, UniProt P60487); assay: PDXP activity towards pyridoxal 5'-phosphate (PLP); settings: phosphatase PDXP; species M.m.; substrate PLP; n.s. = no significant inhibition detectable
T2 sequence (P60487 1-292): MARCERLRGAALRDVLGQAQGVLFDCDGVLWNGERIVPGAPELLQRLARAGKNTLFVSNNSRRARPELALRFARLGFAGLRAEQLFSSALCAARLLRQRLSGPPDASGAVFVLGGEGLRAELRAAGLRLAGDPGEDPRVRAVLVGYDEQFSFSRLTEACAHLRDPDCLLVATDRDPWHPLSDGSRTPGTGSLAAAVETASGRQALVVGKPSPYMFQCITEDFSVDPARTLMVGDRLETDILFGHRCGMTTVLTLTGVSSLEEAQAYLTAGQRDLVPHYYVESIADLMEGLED

[3] = target: T3, murine PGP (Mus musculus, UniProt Q8CHP8); assay: IC50 determination, murine PGP, pNPP dephosphorylation
T3 sequence (Q8CHP8 1-321): T1 sequence (Q8CHP8 1-321)

[4] = target: T4, PGP (Mus musculus, UniProt Q8CHP8); assay: Steady state kinetics of PG dephosphorylation in presence of CP1-3
T4 sequence (Q8CHP8 1-321): T1 sequence (Q8CHP8 1-321)

[5] = physchem; settings: organic solvent or mixture
[6] = target: T3, murine PGP; assay: biochemical
[7] = target: T5, murine PDXP/PGP hybrid (Mus musculus, UniProt P60487+Q8CHP8); assay: PG dephosphorylation by PDXP/PGP hybrid protein; assay type: biochemical
T5 construct: consisting of the PGP cap domain (amino acids 114–233) fused to the PDXP core domain; His6 (N, cleaved yes); made in house; host or cells: Escherichia coli BL21 (DE3), pETM11
T5 sequence (P60487 1-100): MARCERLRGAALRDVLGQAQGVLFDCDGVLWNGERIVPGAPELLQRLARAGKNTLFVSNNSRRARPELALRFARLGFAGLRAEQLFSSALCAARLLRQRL
T5 sequence (Q8CHP8 114-233): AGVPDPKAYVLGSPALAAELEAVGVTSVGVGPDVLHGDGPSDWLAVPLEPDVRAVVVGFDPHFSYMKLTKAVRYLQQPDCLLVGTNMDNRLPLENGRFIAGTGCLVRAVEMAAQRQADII
T5 sequence (P60487 208-292): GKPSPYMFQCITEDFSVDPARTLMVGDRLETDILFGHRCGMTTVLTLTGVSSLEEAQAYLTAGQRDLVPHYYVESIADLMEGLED
Protocol: After centrifugation, cells were resuspended in TNM-2 (100 mM triethanolamine, 500 mM NaCl, 20 mM imidazole, 5 mM MgCl2; pH 7.4). Cleared supernatants were loaded on a HisTrap HP nickel sepharose column in TNM-3 (50 mM triethanolamine, 500 mM NaCl, 20 mM imidazole, 5 mM MgCl2; pH 7.4), and His6-tagged proteins were eluted using a linear gradient of up to 50% TNM-4 (50 mM triethanolamine; 250 mM NaCl; 500 mM imidazole; 5 mM MgCl2; pH 7.4). Peak fractions were pooled, the His6-tag was cleaved, and untagged PDXP or PDXP/PGP was isolated, concentrated and further purified by size exclusion chromatography in TNM-5 (50 mM triethanolamine; 250 mM NaCl; 5 mM MgCl2; pH 7.4). […] Data were analyzed with GraphPad Prism 7.04.

[8] = target: T6, PGP^WT (Mus musculus, UniProt Q8CHP8); assay: Differential scanning fluorimetry (Thermofluor); assay type: binding
T6 construct: His6 (N, cleaved yes); made in house; host or cells: Escherichia coli BL21 (DE3), pETM11, co-expressed with groES-groEL-tig
T6 sequence (Q8CHP8 1-321): T1 sequence (Q8CHP8 1-321)

[9] = PG dephosphorylation, increasing CP concentrations

O=C(O)c1cc(Nc2ccccc2C(=O)O)nc(Nc2ccccc2C(=O)O)n1 [CP3]
Kd ([1]; 25 °C, mean ± S.E.M., n = 3): 430 nM
Kd ([1]; single replicates): 500 nM and 320 nM and 460 nM
dG ([1]; single replicates): -8.598 kcal/mol and -8.862 kcal/mol and -8.651 kcal/mol
dH ([1]; single replicates): -6.466 kcal/mol and -5.835 kcal/mol and -6.568 kcal/mol
dS ([1]; single replicates): 7.151 cal/Mol*K and 10.151 cal/Mol*K and 6.986 cal/Mol*K
IC50 [2]: n.s.
IC50 [3]: 13500 ± 2510 nM
remaining activity at 10 µM ([3]; read-out: M.m PGP on pNPP, activity, control = 100.00, CP log[M] -5): 45.5%
remaining activity at 5 µM ([3]; read-out: M.m PGP on pNPP, activity, control = 100.00, CP log[M] -5.30103): 61.5%
remaining activity at […] ([3]; read-out: M.m PGP on pNPP, activity, control = 100.00, CP log[M] -5.60206): 74.3%
remaining activity at 80 µM ([3]; read-out: M.m PGP on pNPP, activity, control = 100.00, Log CP3 [M] -4.09691): 12.6%
remaining activity at 40 µM ([3]; read-out: M.m PGP on pNPP, activity, control = 100.00, Log CP3 [M] -4.39794): 20.3%
remaining activity at 20 µM ([3]; read-out: M.m PGP on pNPP, activity, control = 100.00, Log CP3 [M] -4.69897): 33.2%
remaining activity at 1.25 µM ([3]; read-out: M.m PGP on pNPP, activity, control = 100.00, Log CP3 [M] -5.90309): 85.2%
remaining activity at 0.625 µM ([3]; read-out: M.m PGP on pNPP, activity, control = 100.00, Log CP3 [M] -6.20412): 88.3%
remaining activity at 0.3125 µM ([3]; read-out: M.m PGP on pNPP, activity, control = 100.00, Log CP3 [M] -6.50515): 93.8%
remaining activity at 0.15625 µM ([3]; read-out: M.m PGP on pNPP, activity, control = 100.00, Log CP3 [M] -6.80618): 98.4%
remaining activity at 0.078125 µM ([3]; read-out: M.m PGP on pNPP, activity, control = 100.00, Log CP3 [M] -7.10721): 101%
mode of PGP inhibition [4]: competitive inhibitors
PGP activity ([4]; 1 µM CP3, PG 50 µM): 2.463 µmol Pi/min/mg and 2.403 µmol Pi/min/mg and 1.502 µmol Pi/min/mg
PGP activity ([4]; 1 µM CP3, PG 100 µM): 5.226 µmol Pi/min/mg and 4.205 µmol Pi/min/mg
PGP activity ([4]; 1 µM CP3, PG 200 µM): 10.3316 µmol Pi/min/mg and 9.671 µmol Pi/min/mg and 8.89 µmol Pi/min/mg
PGP activity ([4]; 1 µM CP3, PG 300 µM): 14.7802 µmol Pi/min/mg and 14.2395 µmol Pi/min/mg and 12.9778 µmol Pi/min/mg
PGP activity ([4]; 1 µM CP3, PG 400 µM): 17.1234 µmol Pi/min/mg and 17.6642 µmol Pi/min/mg and 16.5827 µmol Pi/min/mg
PGP activity ([4]; 1 µM CP3, PG 500 µM): 20.9086 µmol Pi/min/mg and 20.1877 µmol Pi/min/mg and 22.1704 µmol Pi/min/mg
PGP activity ([4]; 1 µM CP3, PG 600 µM): 22.1704 µmol Pi/min/mg and 21.0889 µmol Pi/min/mg and 23.7926 µmol Pi/min/mg
PGP activity ([4]; 1 µM CP3, PG 700 µM): 23.4321 µmol Pi/min/mg and 22.7111 µmol Pi/min/mg and 25.4148 µmol Pi/min/mg
PGP activity ([4]; 1 µM CP3, PG 800 µM): 25.7753 µmol Pi/min/mg and 22.1704 µmol Pi/min/mg and 24.3333 µmol Pi/min/mg
PGP activity ([4]; 2 µM CP3, PG 100 µM): 4.445 µmol Pi/min/mg and 3.364 µmol Pi/min/mg and 4.265 µmol Pi/min/mg
PGP activity ([4]; 2 µM CP3, PG 200 µM): 8.469 µmol Pi/min/mg and 7.448 µmol Pi/min/mg
PGP activity ([4]; 2 µM CP3, PG 300 µM): 12.437 µmol Pi/min/mg and 10.4543 µmol Pi/min/mg and 11.8963 µmol Pi/min/mg
PGP activity ([4]; 2 µM CP3, PG 400 µM): 15.6815 µmol Pi/min/mg and 12.7975 µmol Pi/min/mg and 14.7802 µmol Pi/min/mg
PGP activity ([4]; 2 µM CP3, PG 500 µM): 18.7457 µmol Pi/min/mg and 18.5654 µmol Pi/min/mg and 18.3852 µmol Pi/min/mg
PGP activity ([4]; 2 µM CP3, PG 600 µM): 19.6469 µmol Pi/min/mg and 20.7284 µmol Pi/min/mg
PGP activity ([4]; 2 µM CP3, PG 700 µM): 20.9086 µmol Pi/min/mg and 21.8099 µmol Pi/min/mg and 21.0889 µmol Pi/min/mg
PGP activity ([4]; 2 µM CP3, PG 800 µM): 21.4494 µmol Pi/min/mg and 22.3506 µmol Pi/min/mg and 22.7111 µmol Pi/min/mg
PGP activity ([4]; 4 µM CP3, PG 100 µM): 3.4839 µmol Pi/min/mg and 2.463 µmol Pi/min/mg and 3.424 µmol Pi/min/mg
PGP activity ([4]; 4 µM CP3, PG 200 µM): 6.547 µmol Pi/min/mg and 5.706 µmol Pi/min/mg and 6.728 µmol Pi/min/mg
PGP activity ([4]; 4 µM CP3, PG 300 µM): 9.553 µmol Pi/min/mg and 7.39 µmol Pi/min/mg and 12.7975 µmol Pi/min/mg
PGP activity ([4]; 4 µM CP3, PG 400 µM): 12.437 µmol Pi/min/mg and 10.4543 µmol Pi/min/mg and 15.321 µmol Pi/min/mg
PGP activity ([4]; 4 µM CP3, PG 500 µM): 15.6815 µmol Pi/min/mg and 15.5012 µmol Pi/min/mg and 17.484 µmol Pi/min/mg
PGP activity ([4]; 4 µM CP3, PG 600 µM): 16.763 µmol Pi/min/mg and 19.1062 µmol Pi/min/mg
PGP activity ([4]; 4 µM CP3, PG 700 µM): 16.763 µmol Pi/min/mg and 18.0247 µmol Pi/min/mg and 21.8099 µmol Pi/min/mg
PGP activity ([4]; 4 µM CP3, PG 800 µM): 17.3037 µmol Pi/min/mg and 18.2049 µmol Pi/min/mg and 22.5309 µmol Pi/min/mg
vmax ([4]; CP 1.0 µM): 50.8 ± 4.1 µmol/min/mg
vmax ([4]; CP 2.0 µM): 54.7 ± 4.9 µmol/min/mg
vmax ([4]; CP 4.0 µM): 54.3 ± 11.9 µmol/min/mg
effect on vmax (reduction) [4, 9]: without affecting vmax
increase of KM [4, 9]: ~ 3 fold
solubility [5]: 50 mM (≈ 19.7 mg/mL)
IC50 [6]: 810 nM and 1000 nM
remaining activity at 16 µM ([7]; activity, control = 100, CP log[M] -4.79588): 1.8%
remaining activity at 4 µM ([7]; activity, control = 100, CP log[M] -5.39794): 13.3%
remaining activity at 1 µM ([7]; activity, control = 100, CP log[M] -6): 41.6%
remaining activity at 0.5 µM ([7]; activity, control = 100, CP log[M] -6.30103): 58.4%
remaining activity at […] ([7]; activity, control = 100, CP log[M] -6.60206): 73.5%
remaining activity at 0.125 µM ([7]; activity, control = 100, CP log[M] -6.90309): 84.1%
remaining activity at 0.0625 µM ([7]; activity, control = 100, CP log[M] -7.20412): 89.4%
remaining activity at 0.015625 µM ([7]; activity, control = 100, CP log[M] -7.80618): 103%
IC50 ([7]; phosphatase PDXP/PGP, species M.m., substrate PG): 970 ± 20 nM
TM ([8]; Inhibitor 0.244141 µM): 66.6 °C
TM ([8]; Inhibitor 0.488281 µM): 66.7 °C
TM ([8]; Inhibitor 0.976562 µM): 67.0 °C
TM ([8]; Inhibitor 1.95312 µM): 67.3 °C
TM ([8]; Inhibitor 3.90625 µM): 68.1 °C
TM ([8]; Inhibitor 7.8125 µM): 69.0 °C
TM ([8]; Inhibitor 15.625 µM): 70.4 °C
TM ([8]; Inhibitor 31.25 µM): 71.2 °C
TM ([8]; Inhibitor 62.5 µM): 72.1 °C
TM ([8]; Inhibitor 125 µM): 72.8 °C
TM ([8]; Inhibitor 250 µM): 73.4 °C
